Measurements: US10786580B2, “Cholecystokinin 2 receptor targeted NIR imaging and use thereof” (On Target Laboratories, LLC, priority 2016, dated 2020)
Like-named read-outs stand apart in the source and are kept apart here.

Tests used:
[1] = target: T1, CCK2R (Homo sapiens, UniProt P32239); test: In vitro binding of CCK2R-NIR compounds to HEK-CCK2R cells (cell bound fluorescence); parameters: expressed in transfected cells; host or cells: HEK (human embryonic kidney) cells, HEK-CCK2R, gift from Dr. Mark Hellmich (UTMB); details: for Kd: CCK2R-positive HEK-CCK2R cancer cells, 1 h at 37° C., read-out: KD; for affinity for CCK2R (in words): in vitro binding affinity data
T1 sequence (P32239 1-447): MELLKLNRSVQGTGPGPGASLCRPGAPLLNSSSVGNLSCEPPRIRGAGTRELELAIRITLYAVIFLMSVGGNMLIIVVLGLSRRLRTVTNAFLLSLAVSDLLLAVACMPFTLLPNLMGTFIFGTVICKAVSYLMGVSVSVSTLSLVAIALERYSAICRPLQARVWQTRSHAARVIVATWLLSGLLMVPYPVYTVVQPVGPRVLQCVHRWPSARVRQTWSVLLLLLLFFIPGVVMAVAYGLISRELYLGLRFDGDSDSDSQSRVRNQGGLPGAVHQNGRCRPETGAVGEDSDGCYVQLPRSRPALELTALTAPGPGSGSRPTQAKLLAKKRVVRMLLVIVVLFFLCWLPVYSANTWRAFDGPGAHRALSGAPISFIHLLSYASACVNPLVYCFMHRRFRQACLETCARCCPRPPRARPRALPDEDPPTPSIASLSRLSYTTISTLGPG
Protocol: (§1) FIG. 4 depicts the binding affinities of CCK2R-NIR compounds 21, 42-44 to CCK2R. CCK2R-positive HEK-CCK2R cancer cells were incubated for 1 h at 37° C. with increasing concentrations of compounds. Media was then removed, washed with fresh media three times, and replaced with PBS. Cell bound fluorescence was assayed as using fluorometer.
CCK2R-positive HEK-CCK2R cancer cells were incubated for 1 h at 37° C. with increasing concentrations of compounds. Media was then removed, washed with fresh media three times, and replaced with PBS. Cell bound fluorescence was assayed as using fluorometer.
as §1, with “13 illustrates” for “4 depicts”, “affinity” for “affinities”, “of” for “of CCK2R-NIR”, “[…]” for “21, 42-44”, “compound 21.” for “compounds.”
HEK-CCK2 cells (a human embryonic kidney cells transfected with CCK2 receptor) were a kind gift from Dr. Mark Hellmich (University of Texas Medical Branch, Galveston, Tex.) and grown as a monolayer using Dulbecco's Modified Eagles Medium (GIBCO) (Gibco, NY) 10% heat-inactivated fetal bovine serum (Atlanta Biological, GA) and 1% penicillin streptomycin (Gibco, NY) in a 5% carbon dioxide: 95% air-humidified atmosphere at 37° C. for at least six passages before they were used for the assays.
HEK cells that overexpress CCK2 were seeded into a T75 flask and allowed to form a monolayer over 48 h. After trypsin digestion, release cells were transferred into centrifuge tubes (1×10^6 cells/tube) and centrifuged. The medium was replaced with fresh medium containing increasing concentration of requisite CCK2R-Ligand-NIR dye compound in the presence or absence of 100-fold excess the ligand, a high affinity CCK2 receptor antagonist, and incubated for 1 h at 37° C. After rinsing with fresh medium (2×1.0 mL) and PBS (1×1.0 mL), cells were resuspended in PBS (1.0 mL) and cell bound fluorescence was analyzed (100,000 cells/sample) using a fluorometer (Cary, Agilent). The relative binding affinities were calculated using a plot of % cell bound fluorescence versus the log concentration of the test article using GraphPad Prism 4.

[2] = tested on: subcutaneous PANC-1 tumor; details: oral Z-360 along with gemcitabine, cited from earlier work
[3] = target: T2, CCK1R (Homo sapiens, UniProt P32238); details: cited from earlier work
T2 sequence (P32238 1-428): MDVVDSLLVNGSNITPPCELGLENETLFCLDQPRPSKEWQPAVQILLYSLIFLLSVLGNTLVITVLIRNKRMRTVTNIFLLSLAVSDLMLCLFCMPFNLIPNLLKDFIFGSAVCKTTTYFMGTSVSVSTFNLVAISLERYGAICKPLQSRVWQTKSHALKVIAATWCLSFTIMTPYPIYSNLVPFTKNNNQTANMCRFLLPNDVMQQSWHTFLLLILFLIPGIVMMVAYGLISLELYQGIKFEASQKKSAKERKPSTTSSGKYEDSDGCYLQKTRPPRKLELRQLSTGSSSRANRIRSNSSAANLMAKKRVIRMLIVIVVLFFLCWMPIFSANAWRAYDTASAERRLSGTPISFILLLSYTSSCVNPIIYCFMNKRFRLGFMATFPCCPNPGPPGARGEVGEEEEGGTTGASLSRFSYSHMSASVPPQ

[4] = target: T1, CCK2R; details: cited from earlier work

Kd ([1]; Table 2) [nM]	affinity for CCK2R (in words) ([1]; HEK-CCK2R cells)	Compound	other results
0.9	very high affinity	CC(C)(C)C(=O)CN1C(=O)[C@H](NC(=O)Nc2cccc(C(=O)NCCCC(=O)N[C@@H](Cc3ccc(OC4=C(/C=C/C5=[N+](CCCCS(=O)(=O)[O-])c6ccc(S(=O)(=O)O)cc6C5(C)C)CCC/C4=C\C=C4\N(CCCCS(=O)(=O)O)c5ccc(S(=O)(=O)O)cc5C4(C)C)cc3)C(=O)O)c2)CN(C2CCCCC2)c2ccccc21 [Compound 48]	affinity for CCK2R compared to compound 21 ([1]; HEK-CCK2R cells): less affinity
–	relatively weaker affinity	CC(C)(C)C(=O)CN1C(=O)[C@H](NC(=O)Nc2cccc(C(=O)N[C@H](CCC(=O)N[C@@H](CCCNC(=N)N)C(=O)N[C@@H](Cc3ccc(OC4=C(/C=C/C5=[N+](CCCCS(=O)(=O)[O-])c6ccc(S(=O)(=O)O)cc6C5(C)C)CCC/C4=C\C=C4\N(CCCCS(=O)(=O)O)c5ccc(S(=O)(=O)O)cc5C4(C)C)cc3)C(=O)O)C(=O)O)c2)CN(C2CCCCC2)c2ccccc21 [Compound 42]	Kd ([1]; Table 1): 1.74 nM
14.7	relatively weak affinity	CC(C)(C)C(=O)CN1C(=O)[C@@H](NC(=O)Nc2cccc(C(=O)N[C@H](CCC(=O)N[C@@H](Cc3ccc(OC4=C(/C=C/C5=[N+](CCCCS(=O)(=O)[O-])c6ccc(S(=O)(=O)O)cc6C5(C)C)CCC/C4=C\C=C4\N(CCCCS(=O)(=O)O)c5ccc(S(=O)(=O)O)cc5C4(C)C)cc3)C(=O)O)C(=O)O)c2)CN(C2CCCCC2)c2ccccc21 [Compound 47]	–
13.9	–	CC(C)(C)C(=O)CN1C(=O)[C@H](NC(=O)Nc2cccc(C(=O)NCCCC(=O)N[C@H](Cc3ccc(OC4=C(/C=C/C5=[N+](CCCCS(=O)(=O)[O-])c6ccc(S(=O)(=O)O)cc6C5(C)C)CCC/C4=C\C=C4\N(CCCCS(=O)(=O)O)c5ccc(S(=O)(=O)O)cc5C4(C)C)cc3)C(=O)O)c2)CN(C2CCCCC2)c2ccccc21 [Compound 49]	–
–	–	CC(C)(C)C(=O)CN1C(=O)[C@H](NC(=O)Nc2cccc(C(=O)O)c2)CN(C2CCCCC2)c2ccccc21 [Compound Z-360]	inhibition of subcutaneous PANC-1 tumor growth ([2]; compared with either agent alone): 27.1%; survival compared with the vehicle [2]: significantly increased survival; selectivity ratio over CCK1R [3]: 672; Ki [4]: 0.47 nM
–	relatively weaker affinity	CC(C)(C)C(=O)CN1C(=O)[C@@H](NC(=O)Nc2cccc(C(=O)N[C@@H](CCC(=O)N[C@H](CCCNC(=N)N)C(=O)N[C@H](CC(=O)O)C(=O)N[C@H](Cc3ccc(OC4=C(/C=C/C5=[N+](CCCCS(=O)(=O)[O-])c6ccc(S(=O)(=O)O)cc6C5(C)C)CCC/C4=C\C=C4\N(CCCCS(=O)(=O)O)c5ccc(S(=O)(=O)O)cc5C4(C)C)cc3)C(=O)O)C(=O)O)c2)CN(C2CCCCC2)c2ccccc21 [Compound 44]	–
–	very high affinity	CC(C)(C)C(=O)CN1C(=O)[C@@H](NC(=O)Nc2cccc(C(=O)N[C@H](CCC(=O)O)C(=O)N[C@H](Cc3ccc(OC4=C(/C=C/C5=[N+](CCCCS(=O)(=O)[O-])c6ccc(S(=O)(=O)O)cc6C5(C)C)CCC/C4=C\C=C4\N(CCCCS(=O)(=O)O)c5ccc(S(=O)(=O)O)cc5C4(C)C)cc3)C(=O)O)c2)CN(C2CCCCC2)c2ccccc21 [Compound 43]	–
2.3	–	CC(C)(C)C(=O)CN1C(=O)[C@H](NC(=O)Nc2cccc(C(=O)N[C@@H](CCC(=O)N[C@@H](Cc3ccc(OC4=C(/C=C/C5=[N+](CCCCS(=O)(=O)[O-])c6ccc(S(=O)(=O)O)cc6C5(C)C)CCC/C4=C\C=C4\N(CCCCS(=O)(=O)O)c5ccc(S(=O)(=O)O)cc5C4(C)C)cc3)C(=O)O)C(=O)O)c2)CN(C2CCCCC2)c2ccccc21 [Compound 45]	–
